In ChEMBL document CHEMBL1201862, “PubChem BioAssay data set” (2004):
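Cells were grown in 96-well plates and exposed to each compound for 48 hours at five concentrations; endpoints were interpolated linearly between bracketing concentrations, or set to the highest concentration if not reached. The concentration for 50% growth inhibition is given as GI50.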 Activity calls are given as the source filed them. No stated cut-off is given here; in the data, active = GI50 up to about 1.1 µM and inactive = higher.

Tests used:
Assay in all cases: inhibition of tumour cell growth, NCI panel, 48 h
A498 = system: A498
CAKI-1 = system: CAKI-1
COLO 205 = system: COLO 205
DMS-273 = system: DMS-273
HCC 2998 = system: HCC 2998
HL-60 = system: HL-60
HOP-92 = system: HOP-92
KM12 = system: KM12
NCI-H226 = system: NCI-H226
OVCAR-4 = system: OVCAR-4
OVCAR-5 = system: OVCAR-5
OVCAR-8 = system: OVCAR-8
SK-MEL-5 = system: SK-MEL-5
SK-OV-3 = system: SK-OV-3
SN12C = system: SN12C
SNB-19 = system: SNB-19
SNB-75 = system: SNB-75
LOX IMVI = system: LOX IMVI

Compound | GI50 (A498) | GI50 (CAKI-1) | GI50 (COLO 205) | GI50 (DMS-273) | GI50 (HCC 2998) | GI50 (HL-60) | GI50 (HOP-92) | GI50 (KM12) | GI50 (NCI-H226) | GI50 (OVCAR-4) | GI50 (OVCAR-5) | GI50 (OVCAR-8) | GI50 (SK-MEL-5) | GI50 (SK-OV-3) | GI50 (SN12C) | GI50 (SNB-19) | GI50 (SNB-75) | GI50 (LOX IMVI)
OC(CCNC12CC3CC(CC(C3)C1)C2)c1ccccc1 (stereo not drawn) | > 100 µM (inactive) | > 100 µM (inactive) | 51.8 µM (inactive) | 80.4 µM (inactive) | 68.7 µM (inactive) | > 100 µM (inactive) | 78.3 µM (inactive) | 88.9 µM (inactive) | > 100 µM (inactive) | > 100 µM (inactive) | > 100 µM (inactive) | > 100 µM (inactive) | 43.7 µM (inactive) | > 100 µM (inactive) | > 100 µM (inactive) | > 100 µM (inactive) | 75.7 µM (inactive) | 
Cc1ccc(NC(=O)CCC(=O)C(C#N)c2ccccc2)cc1C (stereo not drawn) | > 100 µM (inactive) | > 100 µM (inactive) | > 100 µM (inactive) | > 100 µM (inactive) | > 100 µM (inactive) | > 100 µM (inactive) | > 100 µM (inactive) | > 100 µM (inactive) | > 100 µM (inactive) | > 100 µM (inactive) | > 100 µM (inactive) | > 100 µM (inactive) | > 100 µM (inactive) | > 100 µM (inactive) | > 100 µM (inactive) | > 100 µM (inactive) |  | > 100 µM (inactive)
COc1cccc(NC(=O)/C(CS(=O)(=O)CCC(C(C)=O)C(C)=O)=N/NC(C)(C)C)c1 | > 100 µM (inactive) | > 100 µM (inactive) | > 100 µM (inactive) | > 100 µM (inactive) | > 100 µM (inactive) | > 100 µM (inactive) | > 100 µM (inactive) | > 100 µM (inactive) | > 100 µM (inactive) | > 100 µM (inactive) | > 100 µM (inactive) | > 100 µM (inactive) | > 100 µM (inactive) | > 100 µM (inactive) | > 100 µM (inactive) | > 100 µM (inactive) | > 100 µM (inactive) | > 100 µM (inactive)
O=S1(=O)OCCOS(=O)(=O)C1Br | > 100 µM (inactive) | > 100 µM (inactive) | > 100 µM (inactive) | > 100 µM (inactive) | > 100 µM (inactive) | > 100 µM (inactive) | > 100 µM (inactive) | > 100 µM (inactive) | < 0.01 µM (active) | > 100 µM (inactive) |  | > 100 µM (inactive) | > 100 µM (inactive) | > 100 µM (inactive) | > 100 µM (inactive) | 64.9 µM (inactive) | > 100 µM (inactive) | 
CCCCCCCC(=O)OC[C@H](C[As](=O)(O)O)OC(=O)CCCCCCC | 11.5 µM (inactive) |  | 15.1 µM (inactive) | 11.3 µM (inactive) | 14.6 µM (inactive) | 3.97 µM (inactive) | 14.4 µM (inactive) |  | 5.9 µM (inactive) | 12.2 µM (inactive) |  | 13.4 µM (inactive) | 13.6 µM (inactive) | 15 µM (inactive) | 10.1 µM (inactive) | 14.3 µM (inactive) | 11.1 µM (inactive) | 
C#CC1(O)CC(c2ccccc2)N(C)C(c2ccccc2)C1 (stereo not drawn) | > 100 µM (inactive) | > 100 µM (inactive) | > 100 µM (inactive) | > 100 µM (inactive) | > 100 µM (inactive) | > 100 µM (inactive) | > 100 µM (inactive) | > 100 µM (inactive) | > 100 µM (inactive) | > 100 µM (inactive) | > 100 µM (inactive) | > 100 µM (inactive) | > 100 µM (inactive) | > 100 µM (inactive) | > 100 µM (inactive) | > 100 µM (inactive) | > 100 µM (inactive) | 51.5 µM (inactive)
NC(=S)Nc1nnc(-c2ccc(-c3nnc(NC(N)=S)o3)cc2)o1 | > 100 µM (inactive) | > 100 µM (inactive) | > 100 µM (inactive) | > 100 µM (inactive) | > 100 µM (inactive) | > 100 µM (inactive) | > 100 µM (inactive) | > 100 µM (inactive) | > 100 µM (inactive) | > 100 µM (inactive) | > 100 µM (inactive) | > 100 µM (inactive) | > 100 µM (inactive) | > 100 µM (inactive) | > 100 µM (inactive) | > 100 µM (inactive) | > 100 µM (inactive) | > 100 µM (inactive)
Nc1c(Cl)ncnc1NCCCNc1ncnc(Cl)c1N | > 100 µM (inactive) | > 100 µM (inactive) | > 100 µM (inactive) | > 100 µM (inactive) | > 100 µM (inactive) | > 100 µM (inactive) | > 100 µM (inactive) | > 100 µM (inactive) | > 100 µM (inactive) | > 100 µM (inactive) | > 100 µM (inactive) | > 100 µM (inactive) | > 100 µM (inactive) | > 100 µM (inactive) | > 100 µM (inactive) | > 100 µM (inactive) |  | > 100 µM (inactive)
O=[N+]([O-])c1ccccc1S(=O)(=O)c1ccccc1 | > 100 µM (inactive) |  | > 100 µM (inactive) | > 100 µM (inactive) | > 100 µM (inactive) | 31.2 µM (inactive) | 80.7 µM (inactive) | > 100 µM (inactive) | 88.1 µM (inactive) | 52.6 µM (inactive) | > 100 µM (inactive) | > 100 µM (inactive) | 81.7 µM (inactive) | > 100 µM (inactive) | > 100 µM (inactive) |  | 23 µM (inactive) | > 100 µM (inactive)
Cc1ccc(NC(=O)CC2Sc3ccccc3NC2=O)cc1C (stereo not drawn) | 37.9 µM (inactive) | 85.9 µM (inactive) | 65.2 µM (inactive) | 85.7 µM (inactive) | > 100 µM (inactive) | 24.5 µM (inactive) | 26 µM (inactive) | 90.4 µM (inactive) | 57.9 µM (inactive) | 56.2 µM (inactive) | > 100 µM (inactive) | 46.8 µM (inactive) | 41.4 µM (inactive) | > 100 µM (inactive) | > 100 µM (inactive) | > 100 µM (inactive) | 39.8 µM (inactive) | 38.6 µM (inactive)
COC(=O)CCC1(NS(=O)(=O)c2ccc(C)cc2)CCC(C(C)(C)C)CC1 (stereo not drawn) | 13.6 µM (inactive) | 13.6 µM (inactive) | 13.4 µM (inactive) | 12.9 µM (inactive) | 14.6 µM (inactive) | 3 µM (inactive) | 7.06 µM (inactive) | 13.1 µM (inactive) |  | 11.2 µM (inactive) | 16.3 µM (inactive) | 14.5 µM (inactive) | 5.62 µM (inactive) | 40.6 µM (inactive) | 13.7 µM (inactive) | 12.2 µM (inactive) | 14.3 µM (inactive) | 17.3 µM (inactive)
COC(=O)C1[C@H](c2ccc3c(c2)OCO3)OC(=O)[C@]1(C(=O)OC)C(=O)c1ccc(OC)c(OC)c1 (stereo partly drawn) | > 100 µM (inactive) | > 100 µM (inactive) | 42.7 µM (inactive) | 25.1 µM (inactive) | 34.7 µM (inactive) | 25.2 µM (inactive) | 44.4 µM (inactive) | 41.3 µM (inactive) | > 100 µM (inactive) | > 100 µM (inactive) | 56.8 µM (inactive) | 42.1 µM (inactive) | 56.2 µM (inactive) | > 100 µM (inactive) | 48.9 µM (inactive) |  | 90.4 µM (inactive) | 18.8 µM (inactive)
